Experimental data as given in patent publication US11634425B2, “Pharmaceutical compounds” (priority 2019, dated 2023).

Columns and labels:
[1] = test system: RSV A2; assay: RSV plaque reduction assay; assay type: cell-based, respiratory syncytial virus (RSV); conditions: human respiratory syncytial virus, HepG2, Hep-G2 cells, mean of at least two experiments
Experimental: (§1) Compounds were subjected to RSV plaque reduction assays according to the following protocol. Plaque EC50 and cell toxicity CC50 values are a mean of at least two experiments and figures are rounded to whole units.
Hep-G2 cells (ECACC, 85011430) were passaged in flasks and seeded in 24-well plates in DMEM containing antibiotics and supplemented with 10% FBS. During inoculation and subsequent incubation, cells were cultured in DMEM containing 2% FBS. 100 plaque forming unit/well of RSV (RSV A2 ECACC, 0709161v) was mixed with eight serial dilutions of compound. Subsequently, 100 μL of the virus/compound mixtures was added to confluent Hep-G2 cell monolayers. The cells and virus/compound mixtures were incubated at 37° C. in a humidified 5% CO2 incubator for 2 h prior to removal of the inoculum and addition of 1 mL of overlay (DMEM containing 2% FBS and 0.8% CMC) containing compound dilutions. The cells and were incubated at 37° C. in a humidified 5% CO2 incubator for 2 days.
Cells were washed with PBS before adding 75/25% […] EtOH/MeOH, for 3 min. Fixative was removed and plates were washed with PBS. A pre-titrated amount of the primary antibody was added in 200 μL PBS/2% milk powder, and plates incubated for 90 min at 37° C. The plates were washed 3 times with PBS/0.05% Tween20 before addition of rabbit anti-goat horse radish peroxidase in 200 μL PBS/2% milk powder, and incubated for 1 h at 37° C. Following three wash steps with PBS/0.05% Tween20, 200 μL ready-to-use TrueBlue was added and plates were incubated at rt for 10-15 min before washing with water. After removal of water, plates were air-dried in the dark.
(§2) Plates were scanned and analysed using the Immunospot S6 Macro analyser, which is equipped with BioSpot analysis software for counting immunostained plaques (virospots). Plaque counts were used to calculate % c infection relative to the mean of the plaque count in the virus control wells for RSV. The EC50 value was calculated as 50% reduction in signal, respectively, by interpolation of inhibition curves fitted with a 4-parameter nonlinear regression with a variable slope in Dotmatics. Plaque EC50 and cell toxicity CC50 values are a mean of at least two experiments and figures are rounded to whole units.

[2] = Cell cytotoxicity (CC50); assay type: cell-based; conditions: human; mean of at least two experiments
Excerpt: as §1, §2

| Structure (SMILES) | EC50 [1] [nM] | CC50 [2] [nM] |
| --- | --- | --- |
| Cc1ccc2nc(-c3ccccc3)c(C(=O)N[C@H]3N=C(c4ccccc4)c4ccccc4NC3=O)n2n1 [Example 92, 6-Methyl-N-[(3S)-2-oxo-5-phenyl-1,3-dihydro-1,4-benzodiazepin-3-yl]-2-phenylimidazo[1,2-b]pyridazine-3-carboxamide] | 48 | > 25000 |
| O=C(N[C@H]1N=C(c2ccccc2)c2cccc(F)c2NC1=O)c1c(-c2ccccc2F)nc2ccc(N3CCC3)nn12 [Example 94, 6-(Azetidin-1-yl)-N-[(3S)-9-fluoro-2-oxo-5-phenyl-1,3-dihydro-1,4-benzodiazepin-3-yl]-2-(2-fluorophenyl)imidazo[1,2-b]pyridazine-3-carboxamide] | 50 | > 25000 |
| Cc1cc(-c2nc3ccc(C)nn3c2C(=O)N[C@H]2N=C(c3ccccc3)c3ccccc3NC2=O)ccn1 [Example 97, 6-Methyl-2-(2-methylpyridin-4-yl)-N-[(3S)-2-oxo-5-phenyl-1,3-dihydro-1,4-benzodiazepin-3-yl]imidazo[1,2-b]pyridazine-3-carboxamide] | 49 | > 25000 |
| Cc1cc(-c2nc3ccc(C)nn3c2C(=O)N[C@H]2N=C(c3ccccc3)c3cccc(F)c3NC2=O)ccn1 [Example 98, N-[(3S)-9-fluoro-2-oxo-5-phenyl-1,3-dihydro-1,4-benzodiazepin-3-yl]-6-methyl-2-(2-methylpyridin-4-yl)imidazo[1,2-b]pyridazine-3-carboxamide] | 48 | > 25000 |
| Cc1ccc2nc(-c3ccncc3F)c(C(=O)N[C@H]3N=C(c4ccccc4)c4ccccc4NC3=O)n2n1 [Example 99, 2-(3-Fluoropyridin-4-yl)-6-methyl-N-[(3S)-2-oxo-5-phenyl-1,3-dihydro-1,4-benzodiazepin-3-yl]imidazo[1,2-b]pyridazine-3-carboxamide] | 51 | > 25000 |
| Cc1ccc2nc(-c3cncc(F)c3)c(C(=O)N[C@H]3N=C(c4ccccc4)c4ccccc4NC3=O)n2n1 [Example 101, 2-(5-Fluoropyridin-3-yl)-6-methyl-N-[(3S)-2-oxo-5-phenyl-1,3-dihydro-1,4-benzodiazepin-3-yl]imidazo[1,2-b]pyridazine-3-carboxamide] | 81 | > 25000 |
| Cc1ccc2nc(-c3cncc(F)c3)c(C(=O)N[C@H]3N=C(c4ccccc4)c4cccc(F)c4NC3=O)n2n1 [Example 102, N-[(3S)-9-fluoro-2-oxo-5-phenyl-1,3-dihydro-1,4-benzodiazepin-3-yl]-2-(5-fluoropyridin-3-yl)-6-methylimidazo[1,2-b]pyridazine-3-carboxamide] | 105 | > 19200 |
| Cc1cncc(-c2nc3ccc(C)nn3c2C(=O)N[C@H]2N=C(c3ccccc3)c3cccc(F)c3NC2=O)c1 [Example 103, N-[(3S)-9-fluoro-2-oxo-5-phenyl-1,3-dihydro-1,4-benzodiazepin-3-yl]-6-methyl-2-(5-methylpyridin-3-yl)imidazo[1,2-b]pyridazine-3-carboxamide] | 82 | > 25000 |
| Cc1ccc2nc(-c3ccc(N4CCOCC4)nc3)c(C(=O)N[C@H]3N=C(c4ccccc4)c4ccccc4NC3=O)n2n1 [Example 104, 6-Methyl-2-(6-morpholin-4-ylpyridin-3-yl)-N-[(3S)-2-oxo-5-phenyl-1,3-dihydro-1,4-benzodiazepin-3-yl]imidazo[1,2-b]pyridazine-3-carboxamide] | 29 | > 25000 |
| COCCOc1ccc2nc(-c3ccccc3F)c(C(=O)N[C@H]3N=C(c4ccccc4)c4cccc(F)c4NC3=O)n2n1 [Example 110, N-[(3S)-9-Fluoro-2-oxo-5-phenyl-1,3-dihydro-1,4-benzodiazepin-3-yl]-2-(2-fluorophenyl)-6-(2-methoxyethoxy)imidazo[1,2-b]pyridazine-3-carboxamide] | 73 | > 25000 |
| COc1ccc2nc(-c3ccccc3)c(C(=O)N[C@H]3N=C(c4ccccc4)c4ccccc4NC3=O)n2n1 [Example 111, 6-Methoxy-N-[(3S)-2-oxo-5-phenyl-1,3-dihydro-1,4-benzodiazepin-3-yl]-2-phenylimidazo[1,2-b]pyridazine-3-carboxamide] | 48 | > 25000 |
| [2H]C([2H])([2H])Oc1ccc2nc(-c3ccccc3)c(C(=O)N[C@H]3N=C(c4ccccc4)c4ccccc4NC3=O)n2n1 [Example 112, N-[(3S)-2-oxo-5-phenyl-1,3-dihydro-1,4-benzodiazepin-3-yl]-2-phenyl-6-(trideuteriomethoxy)imidazo[1,2-b]pyridazine-3-carboxamide] | 50 | > 25000 |
| CCc1ccc(-c2nc3ccc(Cl)nn3c2C(=O)N[C@H]2N=C(c3ccccc3)c3cccc(F)c3NC2=O)cn1 [Example 117, 6-Chloro-2-(6-ethylpyridin-3-yl)-N-[(3S)-9-fluoro-2-oxo-5-phenyl-1,3-dihydro-1,4-benzodiazepin-3-yl]imidazo[1,2-b]pyridazine-3-carboxamide] | 27 | > 25000 |
| COc1ccc2nc(-c3ccc(C)cn3)c(C(=O)N[C@H]3N=C(c4ccccc4)c4cccc(F)c4NC3=O)n2n1 [Example 120, N-[(3S)-9-fluoro-2-oxo-5-phenyl-1,3-dihydro-1,4-benzodiazepin-3-yl]-6-methoxy-2-(6-methyipyridin-3-yl)imidazo[1,2-b]pyridazine-3-carboxamide] | 101 | > 25000 |
| CCc1ccc(-c2nc3ccc(OC)nn3c2C(=O)N[C@H]2N=C(c3ccccc3)c3cccc(F)c3NC2=O)cn1 [Example 121, 2-(6-Ethylpyridin-3-yl)-6-methoxy-N-[(3S)-9-fluoro-2-oxo-5-phenyl-1,3-dihydro-1,4-benzodiazepin-3-yl]imidazo[1,2-b]pyridazine-3-carboxamide] | 42 | > 25000 |
| CCOc1ccc2nc(-c3ccc(CC)nc3)c(C(=O)N[C@H]3N=C(c4ccccc4)c4cccc(F)c4NC3=O)n2n1 [Example 122, 6-Ethoxy-2-(6-ethylpyridin-3-yl)-N-[(3S)-9-fluoro-2-oxo-5-phenyl-1,3-dihydro-1,4-benzodiazepin-3-yl]imidazo[1,2-b]pyridazine-3-carboxamide] | 100 | > 25000 |
| [2H]C([2H])([2H])Oc1ccc2nc(-c3ccc(CC)nc3)c(C(=O)N[C@H]3N=C(c4ccccc4)c4cccc(F)c4NC3=O)n2n1 [Example 123, 2-(6-Ethylpyridin-3-yl)-N-[(3S)-9-fluoro-2-oxo-5-phenyl-2,3-dihydro-1H-1,4-benzodiazepin-3-yl]-6-(^2H3)methoxyimidazo[1,2-b]pyridazine-3-carboxamide] | 45 | > 25000 |
